1 compound from patent publication US20230190852A1, “COMPOSITIONS AND METHODS FOR JOINT HEALTH” (Unigen, Inc., priority 2013, published 2023) can be followed below.

Structures are written as SMILES. Several values for one entry are separate records, joined by “and”; a condition that tells them apart may be missing. Equal values may be shown once. Marks after values point to notes of the source that are not given here.

The experiment concerns Lewis rats. Put plainly: Carrageenan-induced rat paw edema model (paw edema and pain sensitivity). It is filed as in vivo. Conditions: for Pain sensitivity (Analgesia), percent change vs. vehicle, 1 hr / Paw Edema (Inflammation), percent change vs. vehicle, 1 hr: 1 hr after treatment; for Pain sensitivity (Analgesia), percent change vs. vehicle, 5 hr / Paw Edema (Inflammation), percent change vs. vehicle, 5 hr: 5 hr after treatment; for Pain sensitivity, percent change of vehicle / Paw edema, percent change of vehicle: 200 mg/kg oral 1 hr after carrageenan, female Lewis rats, 200 mg/kg. Here is the method:
Local inflammation was induced by intraplantar injection of carrageenan λ (Sigma, St. Louis, Mo.; 100 μl of 1% [w/v] in saline) into the plantar surface of right hind paw of sedated rat (with 2.5% isoflurane) at time 0 (T=0) (Gamache et al., J Neurosurg. 65:679, 1986; Guay et al., J. Biol. Chem. 279:24866, 2004; Chou et al., Anesth. Analg. 97:1724, 2003). Rats were acclimated in a procedure room for 20-30 minutes before each measurement was taken. Allodynia was evaluated by measuring responsiveness to the tip of a Randell-Selitto paw pressure test applied perpendicular to the central plantar surface of the right hind paw. A positive response to the applied pressure, noted by sharp withdrawal of the paw, was recorded automatically by an electronic Von Frey Anesthesiometer (2390 series Electrovonfrey, IITC, Woodland Hills, Calif.) (Vivancos et al., Braz. J. Med. Biol. Res. 37:391, 2004). Mechanical allodynia was evaluated before carrageenan inoculation, and thereafter at 1 hr, 2 hr, 4 hr and 6 hr. Paw edema volume was measured with the use of Plethysmometer (IITC, Woodland Hills, Calif.; Model 520) at time 0 (before carrageenan), and then 1 hr, 2 hr, 4 hr, and 6 hr after carrageenan injection. Animals (N=5 per group) were orally gavaged with a positive control ibuprofen (Spectrum Chemical MFG, Gardena, Calif.) (100 or 200 mg/kg); test articles such as: extracts, and combinations of extracts at various doses from 100, 200, 300 to 400 mg/kg and vehicle control (propylene glycol) were given 1 hour after carrageenan inoculation unless specified otherwise.

Where [1] appears, read: 200 mg/kg oral, listed as ibuprofen.
[2] abbreviates: 200 mg/kg oral, 3 hr after treatment.

Regarding `CC(C)Cc1ccc(C(C)C(=O)O)cc1` (centres unmarked) [Ibuprofen], for the setting “200 mg/kg oral”, the “Pain sensitivity (Analgesia), percent change vs. vehicle, 1 hr” value was 55.6* % and 55.1* % and 52.9* %; the “Paw Edema (Inflammation), percent change vs. vehicle, 1 hr” value is 43.5* % and 39.5* % and 44.6* %; the “Pain sensitivity (Analgesia), percent change vs. vehicle, 5 hr” value was 44.6* % and 50.8* % and 48.8* %; the “Paw Edema (Inflammation), percent change vs. vehicle, 5 hr” value is 50.3* % and 46.6* % and 50.0* %. Under setting [1], the “Pain sensitivity (Analgesia), percent change vs. vehicle, 1 hr” value came out at 55.1%; the “Paw Edema (Inflammation), percent change vs. vehicle, 1 hr” value was determined as 39.5%; the “Pain sensitivity (Analgesia), percent change vs. vehicle, 5 hr” value was found to be 50.8%; the “Paw Edema (Inflammation), percent change vs. vehicle, 5 hr” value worked out at 46.6%. Under setting [2], the “Pain sensitivity (Analgesia), percent change vs. vehicle, 3 hr” value is 62.7* % and 70.3* % and 62.5* %; the “Paw Edema (Inflammation), percent change vs. vehicle, 3 hr” value is 58.0* % and 50.4* % and 54.9* %. In addition, the “Paw Edema (Inflammation), percent change vs. vehicle, 3 hr” value (200 mg/kg oral, 3 hr after treatment, listed as ibuprofen) is reported as 50.4%. Besides, for the setting “1 hr”, the “Pain sensitivity, percent change of vehicle” value is 57.1* % and 55.4* % and 56.4* % and 56.1* % and 53.7* % and 52.4* % and 58.6* %; the “Paw edema, percent change of vehicle” value was 53.2* % and 51.6* % and 53.9* % and 57.2* % and 54.2* % and 53.0* % and 52.5* %. Further, for the setting “3 hr”, the “Pain sensitivity, percent change of vehicle” value was 61.5* % and 65.9* % and 62.2* % and 59.7* % and 64.0* %; the “Paw edema, percent change of vehicle” value was 64.3* % and 61.9* % and 59.0* % and 67.6* % and 57.7* % and 60.1* % and 62.9* %. Also, for the setting “5 hr”, the “Pain sensitivity, percent change of vehicle” value is 44.3* % and 49.3* % and 45.0* % and 47.9* % and 47.5* % and 43.3* % and 50.7* %; the “Paw edema, percent change of vehicle” value is 50.6* % and 50.0* % and 52.6* % and 53.5* % and 48.6* % and 51.3* % and 51.6* %.
